Experimental data: PubChem BioAssay AID1963421 (Molecular Pharmacology Branch, DTP, NCI, 2024)
One block for each molecule: values may come before it.

System: 519858-162-T-J1-PDC complex spheroid growth, % test/control
Assay: Anticancer human tumor 519858-162-T-J1-PDC patient-derived colon adenocarcinoma cell line growth inhibition [Asc]
Settings: for IC50: curve of first compound; for viability, T/C: stronger effect = lower value
In short: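 Concentration series start at each agent's clinical Cmax, or at 10 microM when none is established, and drop in half-log steps; agents are applied alone or together to complex spheroids built with HUVEC and hMSC.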

[1] = second compound 0.0316 µM, first compound 0.00316 µM
[2] = second compound 0.0316 µM, first compound 0.01 µM
[3] = second compound 0.0316 µM, first compound 0.0316 µM
[4] = second compound 0.0316 µM, first compound 0.1 µM
[5] = second compound 0.0316 µM, first compound 0.316 µM
[6] = second compound 0.0316 µM, first compound 1 µM
[7] = second compound 0.1 µM, first compound 0.00316 µM
[8] = second compound 0.1 µM, first compound 0.01 µM
[9] = second compound 0.1 µM, first compound 0.0316 µM
[10] = second compound 0.1 µM, first compound 0.1 µM
[11] = second compound 0.1 µM, first compound 0.316 µM
[12] = second compound 0.1 µM, first compound 1 µM
[13] = second compound 0.316 µM, first compound 0.00316 µM
[14] = second compound 0.316 µM, first compound 0.01 µM
[15] = second compound 0.316 µM, first compound 0.0316 µM
[16] = second compound 0.316 µM, first compound 0.1 µM
[17] = second compound 0.316 µM, first compound 0.316 µM
[18] = second compound 0.316 µM, first compound 1 µM
[19] = second compound 1 µM, first compound 0.00316 µM
[20] = second compound 1 µM, first compound 0.01 µM
[21] = second compound 1 µM, first compound 0.0316 µM
[22] = second compound 1 µM, first compound 0.1 µM
[23] = second compound 1 µM, first compound 0.316 µM
[24] = second compound 1 µM, first compound 1 µM
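Also: seven day drug exposure begun three days after spheroid seeding.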
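For viability, T/C in this document: 100% = DMSO vehicle wells and lower values mean less viable spheroid.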

IC50 (second compound 0.00949 µM): 578 nM | IC50 (second compound 0.03 µM): > 3000 nM | IC50 (second compound 0.0949 µM): > 3000 nM | IC50 (second compound 0.3 µM): > 3000 nM | IC50 (second compound 0.949 µM): > 3000 nM | IC50 (second compound 3 µM): > 3000 nM
Structure (SMILES): Cc1nc(N2CCC3(CC2)COC(C)C3N)c(CO)nc1Sc1ccnc(N)c1Cl (stereo unspecified) + CCN1C(C(=O)NC23CCC(C(=O)O)(CC2)CC3)C(c2cccc(Cl)c2F)C2(C(=O)Nc3cc(Cl)ccc32)C12CCCCC2
viability, T/C (second compound 0.00949 µM, first compound 0.00949 µM): 87% | viability, T/C (second compound 0.00949 µM, first compound 0.03 µM): 91.7% | viability, T/C (second compound 0.00949 µM, first compound 0.0949 µM): 111% | viability, T/C (second compound 0.00949 µM, first compound 0.3 µM): 57.3% | viability, T/C (second compound 0.00949 µM, first compound 0.949 µM): 43.6% | viability, T/C (second compound 0.00949 µM, first compound 3 µM): 45.3% | viability, T/C (second compound 0.03 µM, first compound 0.00949 µM): 85.3% | viability, T/C (second compound 0.03 µM, first compound 0.03 µM): 67% | viability, T/C (second compound 0.03 µM, first compound 0.0949 µM): 101% | viability, T/C (second compound 0.03 µM, first compound 0.3 µM): 85.6% | viability, T/C (second compound 0.03 µM, first compound 0.949 µM): 96% | viability, T/C (second compound 0.03 µM, first compound 3 µM): 63.3% | viability, T/C (second compound 0.0949 µM, first compound 0.00949 µM): 63.2% | viability, T/C (second compound 0.0949 µM, first compound 0.03 µM): 110% | viability, T/C (second compound 0.0949 µM, first compound 0.0949 µM): 70.5% | viability, T/C (second compound 0.0949 µM, first compound 0.3 µM): 66.6% | viability, T/C (second compound 0.0949 µM, first compound 0.949 µM): 73.7% | viability, T/C (second compound 0.0949 µM, first compound 3 µM): 57.5% | viability, T/C (second compound 0.3 µM, first compound 0.00949 µM): 119% | viability, T/C (second compound 0.3 µM, first compound 0.03 µM): 71% | viability, T/C (second compound 0.3 µM, first compound 0.0949 µM): 54.5% | viability, T/C (second compound 0.3 µM, first compound 0.3 µM): 80.6% | viability, T/C (second compound 0.3 µM, first compound 0.949 µM): 47.6% | viability, T/C (second compound 0.3 µM, first compound 3 µM): 52.5% | viability, T/C (second compound 0.949 µM, first compound 0.00949 µM): 67.6% | viability, T/C (second compound 0.949 µM, first compound 0.03 µM): 66.8% | viability, T/C (second compound 0.949 µM, first compound 0.0949 µM): 83.1% | viability, T/C (second compound 0.949 µM, first compound 0.3 µM): 47.4% | viability, T/C (second compound 0.949 µM, first compound 0.949 µM): 73.5% | viability, T/C (second compound 0.949 µM, first compound 3 µM): 59.2% | viability, T/C (second compound 3 µM, first compound 0.00949 µM): 69.5% | viability, T/C (second compound 3 µM, first compound 0.03 µM): 92.5% | viability, T/C (second compound 3 µM, first compound 0.0949 µM): 77.2% | viability, T/C (second compound 3 µM, first compound 0.3 µM): 73.5% | viability, T/C (second compound 3 µM, first compound 0.949 µM): 67% | viability, T/C (second compound 3 µM, first compound 3 µM): 72.5%

IC50 (second compound 0.0316 µM): > 1000 nM | IC50 (second compound 0.1 µM): 578 nM | IC50 (second compound 0.316 µM): > 1000 nM | IC50 (second compound 1 µM): 238 nM | IC50 (second compound 3.16 µM): > 1000 nM | IC50 (second compound 10 µM): > 1000 nM
Structure (SMILES): COc1c(OCCCN2CCOCC2)ccc2c3n(c(=NC(=O)c4cnc(N)nc4)nc12)CCN3 + Cc1c(S(C)(=O)=O)c(-c2cc(F)cc(N3CCN(c4ccc(NS(=O)(=O)c5ccc(NC(CCN6CCC(C(=O)OCCCP(=O)(O)O)CC6)CSc6ccccc6)c(S(=O)(=O)C(F)(F)F)c5)cc4)CC3)c2)c(-c2ccc(Cl)cc2)n1C(C)C
viability, T/C [1]: 41.6% | viability, T/C [2]: 97.5% | viability, T/C [3]: 74.9% | viability, T/C [4]: 95.5% | viability, T/C [5]: 54.4% | viability, T/C [6]: 52.7% | viability, T/C [7]: 68.5% | viability, T/C [8]: 94.5% | viability, T/C [9]: 64.7% | viability, T/C [10]: 100% | viability, T/C [11]: 53.2% | viability, T/C [12]: 47.1% | viability, T/C [13]: 65.2% | viability, T/C [14]: 103% | viability, T/C [15]: 69.4% | viability, T/C [16]: 72.7% | viability, T/C [17]: 52.2% | viability, T/C [18]: 53.5% | viability, T/C [19]: 108% | viability, T/C [20]: 97.1% | viability, T/C [21]: 74.7% | viability, T/C [22]: 59.8% | viability, T/C [23]: 46.8% | viability, T/C [24]: 42.2% | viability, T/C (second compound 3.16 µM, first compound 0.00316 µM): 84.1% | viability, T/C (second compound 3.16 µM, first compound 0.01 µM): 60.8% | viability, T/C (second compound 3.16 µM, first compound 0.0316 µM): 79.2% | viability, T/C (second compound 3.16 µM, first compound 0.1 µM): 70.3% | viability, T/C (second compound 3.16 µM, first compound 0.316 µM): 53.9% | viability, T/C (second compound 3.16 µM, first compound 1 µM): 55.6% | viability, T/C (second compound 10 µM, first compound 0.00316 µM): 78.3% | viability, T/C (second compound 10 µM, first compound 0.01 µM): 72.1% | viability, T/C (second compound 10 µM, first compound 0.0316 µM): 71.1% | viability, T/C (second compound 10 µM, first compound 0.1 µM): 45.6% | viability, T/C (second compound 10 µM, first compound 0.316 µM): 58.2% | viability, T/C (second compound 10 µM, first compound 1 µM): 46.2%

IC50 (second compound 0.00316 µM): 320 nM | IC50 (second compound 0.01 µM): 162 nM | IC50 (second compound 0.0316 µM): 156 nM | IC50 (second compound 0.1 µM): 132 nM | IC50 (second compound 0.316 µM): 237 nM | IC50 (second compound 1 µM): 259 nM
Structure (SMILES): COc1c(OCCCN2CCOCC2)ccc2c3n(c(=NC(=O)c4cnc(N)nc4)nc12)CCN3 + CNC(C)C(=O)NC1CN(S(=O)(=O)c2cccc(S(=O)(=O)N3CCC4CCC(C(=O)NC(c5ccccc5)c5ccccc5)N4C(=O)C(NC(=O)C(C)NC)C3)c2)CCC2CCC(C(=O)NC(c3ccccc3)c3ccccc3)N2C1=O
viability, T/C (second compound 0.00316 µM, first compound 0.00316 µM): 78.1% | viability, T/C (second compound 0.00316 µM, first compound 0.01 µM): 61% | viability, T/C (second compound 0.00316 µM, first compound 0.0316 µM): 68.8% | viability, T/C (second compound 0.00316 µM, first compound 0.1 µM): 65.4% | viability, T/C (second compound 0.00316 µM, first compound 0.316 µM): 48.8% | viability, T/C (second compound 0.00316 µM, first compound 1 µM): 27.9% | viability, T/C (second compound 0.01 µM, first compound 0.00316 µM): 83.3% | viability, T/C (second compound 0.01 µM, first compound 0.01 µM): 89.9% | viability, T/C (second compound 0.01 µM, first compound 0.0316 µM): 85.4% | viability, T/C (second compound 0.01 µM, first compound 0.1 µM): 53.9% | viability, T/C (second compound 0.01 µM, first compound 0.316 µM): 53.1% | viability, T/C (second compound 0.01 µM, first compound 1 µM): 34.4% | viability, T/C [1]: 82.7% | viability, T/C [2]: 78.9% | viability, T/C [3]: 67% | viability, T/C [4]: 54.9% | viability, T/C [5]: 42.1% | viability, T/C [6]: 27.6% | viability, T/C [7]: 86.5% | viability, T/C [8]: 68.2% | viability, T/C [9]: 56.9% | viability, T/C [10]: 62.5% | viability, T/C [11]: 37.1% | viability, T/C [12]: 39.1% | viability, T/C [13]: 72.5% | viability, T/C [14]: 88.5% | viability, T/C [15]: 78.3% | viability, T/C [16]: 65.9% | viability, T/C [17]: 45.1% | viability, T/C [18]: 36.4% | viability, T/C [19]: 84.4% | viability, T/C [20]: 64.9% | viability, T/C [21]: 83.7% | viability, T/C [22]: 48.3% | viability, T/C [23]: 53.6% | viability, T/C [24]: 32%
